Entries after “also recorded” stand apart in the source; their conditions may differ.
What was measured:
Format in all cases: cell-based, human
[1] = tested on: skeletal muscles in the soNMJ model; assay: Contraction analysis of soNMJ model by live imaging; conditions: soNMJ model day 75, control hPSC lines (H1, XM001); 10 μM curare
Protocol: (§1) Three different regions of the same coverslip were recorded for contraction analysis using a Leica SP8 confocal microscope. Each region was recorded twice for 3 minutes using brightfield with 20× zoom. To quantify the muscle contraction, each movie was analyzed individually using MuscleMotion (an open source ImageJ Macro). A reference frame was automatically detected by MuscleMotion to measure the contraction as a variation in pixel over time. The results were then plotted in Prism8 (GraphPad).

[2] = tested on: skeletal muscle fibers and neurons of the soNMJ model; assay: Calcium imaging with Fluo8 in neuromuscular cultures; conditions: day 75, Fluo8-AM, 10 μM curare
Protocol: Between day 50 and day 100, the cells were incubated at 37° C. with […] of the cell permeant calcium indicator Fluo-8 AM (Abcam). After 30 minutes of incubation, the cells were washed two times with culture medium (NB without phenol red) and left to recover for 15 min in the incubator prior to the start of any optical recording. During acquisition, the samples were kept at 37° C. with 5% CO2. Fluorescent time series images were acquired with a CSU-W1 spinning disk confocal microscope. The calcium transients were recorded for 2-3 minutes at 20 frames per second in three different conditions: without any treatment, with addition of […] Acetylcholine (Sigma Aldrich) and with addition of 10 μM Curare (Sigma Aldrich).
Analysis of the calcium activity was performed by measuring the variation of fluorescence intensity in each ROI with ImageJ. ROIs were detected manually, and neurons and muscle cells could be distinguished by morphology. The variation of fluorescence intensity for each individual ROI was then plotted in Prism 8 (GraphPad).

[3] = tested on: NMJs of the soNMJ model; assay: Optogenetic (Channelrhodopsin) stimulation of neurons with muscle contraction readout
Protocol: For specifically stimulating neurons in the neuromuscular culture, cells were incubated with 1E+9 VG/mL AAV8-hSyn-hChR2 (H134R)-GFP for 48 h at day 50. After 3-4 weeks, the expression of ChR2 (H134R)-GFP was assessed using a confocal microscope. Cultures were transferred to the electrophysiology setup described above, and continuously superfused with HEPES-buffered extracellular solution at room temperature. Bright-field images of 2048×2048 were acquired at 10 Hz using an sCMOS camera (Photometrics Prime BSI Express) with 50 ms exposure time. Every 50 s, ChR2-expressing neurons were optically stimulated with three 5-ms flashes of 470 nm light at 10 Hz, with 10 mW/mm2 intensity. For the analysis, the muscle contraction recorded in brightfield was quantified using MuscleMotion (described below), plotted in Prism8 (GraphPad) and correlated to the light […] pulses.
as §1

[4] = tested on: SMA type I hiPSC derived soNMJ cultures; assay: Muscle contraction analysis in SMA type I soNMJ model; conditions: day 50, 10 μM, compared to H1 control
Protocol: as §1

## curare
[1]
  skeletal muscle contraction: blocked the contraction of the skeletal muscles
[2]
  calcium activity / firing of the neurons: without affecting the firing of the neurons
  calcium activity in skeletal muscle fibers: blocked the calcium activity in the skeletal muscle fibers; also recorded: abolished the calcium activity in the skeletal muscles
[3]; day 75, 470 nm light pulse, 10 μM curare
  muscle contraction upon optogenetic stimulation of ChR2-GFP+ neurons: inhibition of muscle contraction even upon optogenetic stimulation; also recorded: blocked the optogenetic stimulation of the skeletal muscles
[3]; day 75, after washing out curare
  muscle contraction response to blue light stimulation after washout: restored by washing out curare
[4]
  muscle contraction in SMA type I soNMJ: did not respond; also recorded: failed to stop spontaneous muscle activity

— patent US20240418707A1, “SELF-ORGANIZING NEURO-MUSCULAR JUNCTION CELL CULTURE MODEL” (Max-Delbrück-Centrum für Molekulare Medizin in der …, priority 2023, published 2024)
